Measurements from patent EP2910242B1, “DURABLE […] SEBACOYL DI[…]-PLGA CONTROLLED RELEASE FORMULATION” (Hu, Oliver Yaopu, priority 2012, dated 2014).
Converted amounts (≈) assume the structure as drawn. Counter-ions that a name gives are not always drawn. Like-named read-outs stand apart in the source and are kept apart here.

Legend:
[1] = oil-in-water coefficient (logP)
[2] = drug saturated solubility in water
[3] = subcutaneous injection of PLGA microspheres containing the drug; 50 mg/rabbit; cited from earlier work

Row | SMILES | logP [1] | solubility [2] | time the effective serum concentration lasted [3] | solubility ([2]; water)
1 | CCCCCCC(=O)Oc1ccc2c3c1O[C@H]1[C@@H](O)CC[C@@]4(O)[C@@H](C2)N(CC2CCC2)CC[C@]314 [Nalbuphine enanthate] | 1.94 | 3 µg/mL (≈ 6.39 µM) | – | –
2 | CC(C)(C)C(=O)Oc1ccc2c3c1O[C@H]1[C@@H](O)CC[C@@]4(O)[C@@H](C2)N(CC2CCC2)CC[C@]314 [Nalbuphine pivalate] | 1.42 | 33.7 µg/mL (≈ 76.3 µM) | 4 days | –
3 | CCCCCCCCCC(=O)Oc1ccc2c3c1O[C@H]1[C@@H](O)CC[C@@]4(O)[C@@H](C2)N(CC2CCC2)CC[C@]314 [Nalbuphine decanoate] | 3.3 | 0.67 µg/mL (≈ 1.31 µM) | 4 days | –
4 | CCC(=O)Oc1ccc2c3c1O[C@H]1[C@@H](O)CC[C@@]4(O)[C@@H](C2)N(CC2CCC2)CC[C@]314 [Nalbuphine propionate] | 1.05 | 44.7 µg/mL (≈ 108 µM) | 4 days | –
5 | Oc1ccc2c3c1O[C@H]1[C@@H](O)CC[C@@]4(O)[C@@H](C2)N(CC2CCC2)CC[C@]314 [Nalbuphine HCl] | – | – | – | > 25000 µg/mL
6 | O=C(CCCCCCCCC(=O)Oc1ccc2c3c1O[C@H]1[C@@H](O)CC[C@@]4(O)[C@@H](C2)N(CC2CCC2)CC[C@]314)Oc1ccc2c3c1O[C@H]1[C@@H](O)CC[C@@]4(O)[C@@H](C2)N(CC2CCC2)CC[C@]314 [Sebacoyl dinalbuphine ester] | 3.15 | < 0.25 µg/mL | – | –
